In patent US11926619B2, “Certain pladienolide compounds and methods of use” (EISAI R&D MANAGEMENT CO., LTD., priority 2018, dated 2024) one finds GI50, Emax and IC50 data, which are given here for 25 compounds.

Experiment [1] concerns WiDr cells (colon cancer cells; wildtype SF3B1). The experiment can be described thus: Cell viability assay (CellTiter-Glo, 72 hr), WiDr cells. The experiment is classed as cell-based. The conditions noted are these: Homo sapiens; WiDr cells (wildtype SF3B1); read-out: WiDr GI50. An outline of the steps:
(§1)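 Cells at 2000/well were exposed to 9 compound concentrations (0.1% DMSO) in duplicate or triplicate for 72 hr at 37 °C. ATP was read by CellTiter-Glo against a time-zero plate and DMSO control growth. Percent growth/viability was plotted against concentration to give Emax; negative values indicate lethality.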

For experiment [2], the system named is WiDr-R cells (colon cancer cells; chemically-induced SF3B1 R1074H mutant). The experiment can be described thus: Cell viability assay (CellTiter-Glo, 72 hr), resistant WiDr-R cells (counter-screen). The experiment is classed as cell-based. The conditions noted are these: WiDr-R cells (SF3B1 R1074H mutation, resistant); read-out: WiDr-R GI50. The method, boiled down: as §1

In experiment [3] the test system is Panc 05.04 cells (pancreatic cancer cells; Q699H and K700E mutations in SF3B1). The experiment in a line: Cell viability assay (CellTiter-Glo, 72 hr), Panc 05.04 cells. In kind it is cell-based. As to conditions: Panc 05.04 cells (mutant SF3B1); for Emax: maximum achievable response in tested dose range, negative value = cellular lethality, read-out: Panc 05.04 (mt SF3B1 cells) Emax (%); for GI50: read-out: Panc 05.04 (mt SF3B1 cells), GI50. An outline of the steps: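 Panc 05.04 cells treated 72 hr at 37 °C with 9 compound concentrations (0.1% DMSO), duplicate or triplicate. ATP read by CellTiter-Glo; growth inhibition/viability calculated against a time-zero plate and DMSO control growth. Emax is the maximal response over the tested range, negative values meaning lethality.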

Experiment [4] has as its target T1, SF3b complexes (Homo sapiens, UniProt O75533+Q7RTV0).
T1 construct: endogenous in cells
The experiment can be described thus: Scintillation proximity assay (SPA) with [3H]-labelled pladienolide probe. In kind it is binding. The conditions noted are these: wt SF3B1, read-out: SPA (wt SF3B1 cells) IC50. As to the method:
Batch immobilization of anti-SF3B1 antibody (MBL) to anti-mouse PVT SPA scintillation beads (PerkinElmer) was prepared as follows: for every 2.5 mg of nuclear extracts, 5 μg anti-SF3B1 antibody and 1.5 mg of beads were mixed in 150 μl PBS. The antibody-bead mixture was incubated for 30 min at RT and centrifuged at 18,000 g for 5 min. 150 μl PBS was used to resuspend every 1.5 mg antibody-bead mixture. The beads were suspended and added to the prepared nuclear extracts. The slurry was incubated for 2 h at 4° C. with gentle mixing. The beads were then collected by centrifuging at 18,000 g for 5 min, and washed twice with PBS+0.1% Triton X-100. After a final centrifugation step, every 1.5 mg of beads was suspended with 150 μl of PBS. The SF3b complexes were tested for [^3H]-labelled pladienolide probe binding ([^3H]-PB), synthesized as previously described (Kotake et al., 2007). 100 μL binding reactions were prepared with 50 μl bead slurry and by adding varying concentrations of PB or PB—OH, and after 30 min pre-incubation, 2.5 nM [^3H]—PB was added. The mixture was incubated for 30 min, and luminescence signals were read using a MicroBeta2 Plate Counter (PerkinElmer). Prism 6 (Graphpad) was used for non-linear regression curve fitting of the data.

For `C/C(=C\C=C\C(C)c1cccc(N2CCCC2)n1)[C@H]1OC(=O)C[C@H](O)CC[C@@](C)(O)[C@@H](OC(=O)N2CCN(C3CCCCCC3)CC2)/C=C/[C@@H]1C` (stereo partly shown), the 50% growth inhibitory concentration (GI50) in experiment [1] is 320 nM; in experiment [2] it was above 1000 nM; in experiment [3] it was 122 nM. In addition, the Emax in experiment [3] is -95.3%. Further, the IC50 in experiment [4] worked out at 21.9 nM.
Turning to `CC(=O)O[C@H]1/C=C/[C@H](C)[C@@H](/C(C)=C/C=C/[C@@H](C)COC(=O)N(C)C)OC(=O)C[C@H](O)CC[C@@]1(C)O`, the GI50 in experiment [1] was 46.7 nM; in experiment [2] it was above 10000 nM; in experiment [3] it was 74.4 nM. Besides, the Emax in experiment [3] is -91.2%. The IC50 in experiment [4] was 18 nM.
Taken in the same sequence, the figures for `C/C(=C\C=C\[C@H](C)c1nccc(C)n1)[C@H]1OC(=O)C[C@H](O)CC[C@@](C)(O)[C@@H](OC(=O)N2CCN(C3CCCCCC3)CC2)/C=C/[C@@H]1C` were 125 nM, above 1000 nM, 101 nM, -76.7% and 9.7 nM.
As to `C/C(=C\C=C/[C@@H](C)COC(=O)N1CC[C@@H](O)C1)[C@H]1OC(=O)C[C@H](O)CC[C@H](C)[C@@H](OC(=O)N2CCN(C)CC2)/C=C/[C@@H]1C`, the results for the GI50 in experiment [1], in experiment [2] and in experiment [3] were 4.51 nM, above 1000 nM and 6.67 nM, respectively. Further, the Emax in experiment [3] is -90.4%. Also, in experiment [4], the half-inhibitory concentration (IC50) came out at 2.15 nM.
For `C/C(=C\C=C\[C@@H](C)c1ccccn1)[C@H]1OC(=O)C[C@H](O)CC[C@H](C)[C@@H](OC(=O)N2CCN(C3CCCCCC3)CC2)/C=C/[C@@H]1C`, the concentration for 50% growth inhibition (GI50) in experiment [1] amounted to 33.2 nM; in experiment [2], 2430 nM; in experiment [3], 44 nM. Moreover, in experiment [3], the Emax is -96.3%. The IC50 in experiment [4] is 10.6 nM.
With `C/C(=C\C=C\C(C)c1cccnc1)[C@H]1OC(=O)C[C@H](O)CC[C@@](C)(O)[C@@H](OC(=O)N2CCN(C3CCCCCC3)CC2)/C=C/[C@@H]1C` (stereo partly shown), the concentration for 50% growth inhibition (GI50) was 19.7 nM in experiment [1], above 1000 nM in experiment [2] and 10.4 nM in experiment [3]. For the same compound, the Emax in experiment [3] is -95.4%. Also, the half-inhibitory concentration (IC50) in experiment [4] is 2.51 nM.
For `C/C(=C\C=C\[C@H](C)c1cccnc1)[C@H]1OC(=O)C[C@H](O)CC[C@@](C)(O)[C@@H](OC(=O)N2CCN(C3CCCCCC3)CC2)/C=C/[C@@H]1C`, the 50% growth inhibitory concentration (GI50) in experiment [1] was 29.4 nM; in experiment [2], above 1000 nM; in experiment [3], 20.4 nM. Also, in experiment [3], the Emax is -94.2%. In addition, the IC50 in experiment [4] was found to be 2.56 nM.
As to `CC[C@H](O)[C@@H](C)[C@H]1O[C@@H]1C[C@@](C)(O)/C=C/C=C(\C)[C@H]1OC(=O)C[C@H](O)CC[C@@](C)(OC)[C@@H](OC(=O)N2CCN(CCCC(=O)O)CC2)/C=C/[C@@H]1C`, in experiment [4], the IC50 is 14.6 nM.
Turning to `CC[C@H](O)[C@@H](C)[C@H]1O[C@@H]1C[C@H](C)/C=C/C=C(\C)[C@H]1OC(=O)C[C@H](O)CC[C@@](C)(OC)[C@@H](OC(=O)N2CCNCC2)/C=C/[C@@H]1C`, the IC50 in experiment [4] is 0.99 nM.
Regarding `CC[C@H](O)[C@@H](C)[C@H]1O[C@@H]1C[C@H](C)/C=C/C=C(\C)[C@H]1OC(=O)C[C@H](O)CC[C@@](C)(OC(C)=O)[C@@H](OC(=O)N2CCNCC2)/C=C/[C@@H]1C`, in experiment [3], the Emax was -47.1% and the GI50 is 2.05 nM. In addition, the 50% inhibitory concentration (IC50) in experiment [4] worked out at 2.12 nM.
As to `CC(=O)O[C@H]1/C=C/[C@H](C)[C@@H](/C(C)=C/C=C/C(c2ccccn2)C(C)C)OC(=O)C[C@H](O)CC[C@@]1(C)O` (stereo partly shown), the IC50 in experiment [4] turned out to be 20.9 nM.
Regarding `CC[C@H](O)[C@@H](C)[C@H]1O[C@@H]1C[C@H](C)/C=C/C=C(\C)[C@H]1OC(=O)C[C@H](O)CC[C@@](C)(OC)[C@@H](OC(=O)N2CCN(C)CC2)/C=C/[C@@H]1C`, the half-maximal inhibitory concentration (IC50) in experiment [4] amounted to 1.52 nM.
For `CC[C@H](O)[C@@H](C)[C@H]1O[C@@H]1C[C@H](C)/C=C/C=C(\C)[C@H]1OC(=O)C[C@H](O)CC[C@@](C)(OC(=O)N2CCNCC2)[C@@H](OC(C)=O)/C=C/[C@@H]1C`, in experiment [3], the Emax is -78.9% and the GI50 stood at 0.86 nM. In addition, in experiment [4], the IC50 was determined as 2.08 nM.
Take `CCO[C@]1(C)CC[C@@H](O)CC(=O)O[C@H](/C(C)=C/C=C/[C@](C)(O)C[C@H]2O[C@@H]2[C@H](C)[C@@H](O)CC)[C@@H](C)/C=C/[C@@H]1OC(=O)N1CCNCC1`: in experiment [3], the Emax is -75.4% and the concentration for 50% growth inhibition (GI50) came out at 1.76 nM. The half-maximal inhibitory concentration (IC50) in experiment [4] came to 9.23 nM.
For `CC[C@H](O)[C@@H](C)[C@H]1O[C@@H]1C[C@@](C)(O)/C=C/C=C(\C)[C@H]1OC(=O)C[C@H](O)CC[C@@](C)(OC(C)=O)[C@@H](OC(=O)N2CCNCC2)/C=C/[C@@H]1C`, in experiment [3], the Emax was -73.2% and the concentration for 50% growth inhibition (GI50) is 26.8 nM. For the same compound, in experiment [4], the IC50 was determined as 8.78 nM.
Regarding `CC[C@H](O)[C@@H](C)[C@H]1O[C@@H]1C[C@@](C)(O)/C=C/C=C(\C)[C@H]1OC(=O)C[C@H](O)CC[C@@](C)(OC)[C@@H](OC(=O)N2CCNC(CCC(=O)O)C2)/C=C/[C@@H]1C` (stereo partly shown), the IC50 in experiment [4] came out at 29.2 nM.
Consider `C/C(=C\C=C\[C@@H](C)c1ccccn1)[C@H]1OC(=O)C[C@H](O)CC[C@@](C)(O)[C@@H](OC(=O)N2CC[N+](C)([O-])CC2)/C=C/[C@@H]1C`, for which, in experiment [3], the Emax is -81.2% and the GI50 was found to be 45.4 nM. The IC50 in experiment [4] is 5.89 nM.
For `CC[C@H](O)[C@@H](C)[C@H]1O[C@@H]1C[C@@](C)(O)/C=C/C=C(\C)[C@H]1OC(=O)C[C@H](O)CC[C@@](C)(OC(=O)N2CCNCC2)[C@@H](OC(C)=O)/C=C/[C@@H]1C`, in experiment [3], the Emax is -74.2% and the concentration for 50% growth inhibition (GI50) was 23.5 nM. Moreover, the IC50 in experiment [4] was 5.92 nM.
Taken in the same sequence, the figures for `C/C(=C\C=C\[C@@H](C)c1ccccn1)[C@H]1OC(=O)C[C@H](O)CC[C@@](C)(O)[C@@H](O)/C=C/[C@@H]1C` were 49.5%, 3980 nM and above 1200 nM.
Regarding `C/C(=C\C=C\[C@@H](C)c1ccccn1)[C@H]1OC(=O)C[C@H](O)CC[C@@](C)(O)[C@@H](OC(=O)N2CCC(N3CC4CCC(C3)C4(F)F)CC2)/C=C/[C@@H]1C`, in experiment [3], the Emax was -90.3% and the GI50 came out at 76.1 nM. For the same compound, the IC50 in experiment [4] stood at 47.3 nM.
As for `CC[C@H](O)[C@@H](C)[C@H]1O[C@@H]1C[C@@](C)(O)/C=C/C=C(\C)[C@H]1OC(=O)C[C@H](O)CC[C@@](C)(OC)[C@@H](OC(=O)N(C)CCNC)/C=C/[C@@H]1C`, in experiment [4], the IC50 was found to be 18.3 nM.
With `CC[C@H](O)[C@@H](C)[C@H]1O[C@@H]1C[C@@](C)(O)/C=C/C=C(\C)[C@H]1OC(=O)C[C@H](O)CC[C@@](C)(OC(C)=O)[C@@H](OC(=O)N2C[C@@H]3C[C@H]2CN3)/C=C/[C@@H]1C`, the 50% inhibitory concentration (IC50) in experiment [4] was determined as 16 nM.
On to `C/C(=C\C=C\C(C)c1cccnc1)[C@H]1OC(=O)C[C@H](O)CC[C@@](C)(O)[C@@H](OC(=O)N2CCC(N3CCC(F)(F)CC3)CC2)/C=C/[C@@H]1C` (stereo partly shown), for which, in experiment [3], the Emax was -2.9% and the GI50 is 94.8 nM. Besides, in experiment [4], the IC50 came to 30.9 nM.
For the compound `CC[C@H](O)[C@@H](C)[C@H]1O[C@@H]1C[C@@](C)(O)/C=C/C=C(\C)[C@H]1OC(=O)C[C@H](O)CC[C@@](C)(OC(C)=O)[C@@H](OC(=O)N2CCN(CCO)CC2)/C=C/[C@@H]1C`, the half-inhibitory concentration (IC50) in experiment [4] came to 24.3 nM.
Consider `C\C(=C/C=C/C=C/[C@@H](C)c1ccccn1)C1OC(=O)C[C@H](O)CC[C@@](C)(O)[C@@H](OC(=O)N2CCN(C3CCCCCC3)CC2)/C=C/[C@@H]1C` (stereo partly shown), for which, in experiment [3], the Emax is 11% and the GI50 amounted to 720 nM. Besides, in experiment [4], the IC50 is 120 nM.
